Assay results as given in patent US20240366536A1, “MODULATORS OF A POTASSIUM CHANNEL AND OF TRPV1 CHANNEL AND USES THEREOF” (Bsense Bio Therapeutics Ltd., priority 2022, published 2024).
≈ marks a conversion by molar mass, not a printed value. Where two headings read alike, the source gives them in different places.

Columns and labels:
[1] = system: NGF-treated rat DRG neurons; experiment: Neuropathic model in rat DRGs (NGF pretreatment, capsaicin induced tetanic burst); type: cell-based; conditions: NGF 100 ng/ml pretreatment, compound at 100 nM
Experimental: FIG. 8B presents representative data obtained in assays in which neurons were pretreated with NGF 100 ng/ml for 4-5 days. NGF Non-treated rat DRGs were stimulated by repeated capsaicin application with and without 421-6 at 2 μM (top panel) or 100 nM (Middle panel).
DRGs treated with NGF show tetanic action potential burst in response to CAP application, mimicking neuropathic like response. See, Background Art FIG. 8A. NGF enhances TRPV1 function using Calcium-dependent fluorescence, F, relative to maximal fluorescence, Fmax, as a function of time from a single HEK293 cell stably transfected with TrkA and transiently transfected with hTRPV1. Pulses of capsaicin (100 nM, applied as shown at top) elicited submaximal increases in [Ca]i. Exposure to NGF (100 ng/ml, see top) enhanced the capsaicin induced calcium increase. Arrows show responses used for calculation of sensitization ratio.

[2] = system: primary neonatal rat DRG neurons; experiment: Rat DRG neuron firing, current-induced and capsaicin-induced (current clamp); type: cell-based
Text: rDRGs isolation and primary cell culture: Briefly, rat DRGs from all spinal levels were carefully removed and collected in HBSS on ices, connective tissue of the epineurium surrounding the ganglion was removed and cells were dissociated using Collagenase-II and trypsin dissociation solutions. DRGs were dissociated further, passed through glass Pasteur pipettes to obtain single cells. Then dissociation solution was changed to 5% FBS containing DRG neuronal culture medium and plated onto ECL coated 12 mm cover glass.
Additional rDRGs experiments were performed using Lonza primary neonatal rat (Sprague Dawley neonatal; P2,3) DRG neurons (R-DRG-505, Lonza) plated and cultured according to the manufacturer.
These cryopreserved DRG cells were prepared from freshly isolated and dissociated spinal cord dorsal root ganglia and comprise a normal distribution of neurons and glia (schwann cells).
Electrophysiology: Cells were used for electrophysiological recording in the 48 hours following rDRG isolation. Round small neurons (20-40 m in diameter) were selected for electrophysiology recordings, to select for small nociceptive neurons that propagate pain sensation in vivo and that are expressing both Kv7.2/3 and TRPV1 targets. Membrane excitability was monitored using current clamp. Positive current steps of different amplitude were injected (400 ms) to induce spikes trains before and following compound application.
The inhibitory potency of the newly designed compounds was studied on neuronal excitability in an experimental system of high physiological relevance, primary neonatal rat DRG neurons (Sprague Dawley neonatal; P2,3; R-DRG-505, Lonza). These cryopreserved DRG cells are prepared from freshly isolated and dissociated spinal cord dorsal root ganglia and comprise a normal distribution of neurons and glia (schwann cells).
The inhibitory potency was tested both on current-induced and Capsaicin-induced neuronal activity.

hERG [3] = target: T1, hERG (Homo sapiens (Human), UniProt Q12809); experiment: hERG FLIPR Potassium assay, CHO/hERG cell line; conditions: at the concentration given as hERG IC50 bound
T1 sequence (Q12809 whole entry): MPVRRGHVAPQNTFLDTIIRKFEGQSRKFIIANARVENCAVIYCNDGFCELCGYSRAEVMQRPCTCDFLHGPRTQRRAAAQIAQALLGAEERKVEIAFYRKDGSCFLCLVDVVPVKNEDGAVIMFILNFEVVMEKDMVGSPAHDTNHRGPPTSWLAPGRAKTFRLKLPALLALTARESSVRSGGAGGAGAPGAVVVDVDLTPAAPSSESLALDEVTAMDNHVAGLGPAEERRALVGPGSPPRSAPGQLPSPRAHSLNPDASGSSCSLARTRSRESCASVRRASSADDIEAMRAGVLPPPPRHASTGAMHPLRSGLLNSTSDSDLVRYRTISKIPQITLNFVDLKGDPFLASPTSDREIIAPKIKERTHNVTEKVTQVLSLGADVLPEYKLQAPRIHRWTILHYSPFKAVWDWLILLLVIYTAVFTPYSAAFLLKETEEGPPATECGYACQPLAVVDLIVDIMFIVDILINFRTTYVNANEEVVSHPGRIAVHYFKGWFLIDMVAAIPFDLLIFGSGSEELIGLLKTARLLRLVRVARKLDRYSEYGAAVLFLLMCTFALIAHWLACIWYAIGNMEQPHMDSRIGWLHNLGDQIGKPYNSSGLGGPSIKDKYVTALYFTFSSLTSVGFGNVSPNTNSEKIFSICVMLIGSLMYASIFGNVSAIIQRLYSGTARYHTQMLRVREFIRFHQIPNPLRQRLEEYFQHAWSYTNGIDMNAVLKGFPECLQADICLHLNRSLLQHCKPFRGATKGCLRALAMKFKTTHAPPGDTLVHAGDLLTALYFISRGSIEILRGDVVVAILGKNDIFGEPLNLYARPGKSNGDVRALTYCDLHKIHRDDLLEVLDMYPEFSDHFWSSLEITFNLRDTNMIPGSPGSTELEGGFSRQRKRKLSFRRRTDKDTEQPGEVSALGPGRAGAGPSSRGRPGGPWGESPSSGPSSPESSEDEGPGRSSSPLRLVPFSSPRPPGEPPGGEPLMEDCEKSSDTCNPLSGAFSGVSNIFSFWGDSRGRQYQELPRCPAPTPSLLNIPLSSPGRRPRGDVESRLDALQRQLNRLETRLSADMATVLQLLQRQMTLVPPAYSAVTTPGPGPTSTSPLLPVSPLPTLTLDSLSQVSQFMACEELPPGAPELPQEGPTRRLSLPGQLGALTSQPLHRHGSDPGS

[4] = Solubility assay (kinetic solubility); type: physicochemical; parameters: Kinetic Sol.: unit not given here
[5] = LogD measurement at pH 7.4; type: physicochemical
[6] = Metabolic stability in human liver microsomes (HLM Clint); type: in vitro ADME
hTRPV1 [7] = target: T2, hTRPV1 (Homo sapiens (Human), UniProt Q8NER1); experiment: TRPV1 electrophysiology in CHO cells co-expressing hKv7.2/3 and hTRPV1; type: cell-based; conditions: also when co-applied with retigabine
T2 sequence (Q8NER1 whole entry): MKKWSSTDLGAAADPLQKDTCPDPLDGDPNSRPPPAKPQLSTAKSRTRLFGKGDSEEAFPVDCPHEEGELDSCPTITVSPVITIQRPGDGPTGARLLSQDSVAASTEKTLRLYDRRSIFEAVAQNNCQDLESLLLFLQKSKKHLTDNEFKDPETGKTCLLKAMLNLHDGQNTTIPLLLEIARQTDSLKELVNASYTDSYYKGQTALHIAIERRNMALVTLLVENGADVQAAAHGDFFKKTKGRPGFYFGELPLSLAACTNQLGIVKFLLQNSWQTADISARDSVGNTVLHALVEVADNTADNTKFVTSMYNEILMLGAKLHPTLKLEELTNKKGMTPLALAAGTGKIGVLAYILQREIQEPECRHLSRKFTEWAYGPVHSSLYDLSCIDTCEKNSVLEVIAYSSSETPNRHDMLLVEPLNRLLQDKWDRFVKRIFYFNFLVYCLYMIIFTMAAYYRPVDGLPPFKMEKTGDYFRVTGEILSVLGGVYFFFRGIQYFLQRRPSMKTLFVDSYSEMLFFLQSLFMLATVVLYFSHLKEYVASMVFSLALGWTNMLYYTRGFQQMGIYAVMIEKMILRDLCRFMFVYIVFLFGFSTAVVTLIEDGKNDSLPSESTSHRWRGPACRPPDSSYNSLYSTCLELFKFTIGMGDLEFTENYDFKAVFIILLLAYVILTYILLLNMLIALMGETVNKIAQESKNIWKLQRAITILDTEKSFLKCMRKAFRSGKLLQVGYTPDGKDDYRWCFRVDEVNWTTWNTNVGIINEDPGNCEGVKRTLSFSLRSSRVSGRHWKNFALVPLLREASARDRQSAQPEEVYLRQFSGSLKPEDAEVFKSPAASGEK
Text: To exemplify the functional coupling of Kv7.2/3 and TRPV1, stably expressing Kv7.2/3 cells were transfected with human TRPV1 and their response to current ramp to −40 mV (Kv activation) and capsaicin (TRPV1 activation) was examined electrophysiologically.

human sensory neurons = experiment: Spontaneous activity of human sensory neurons differentiated from hNPCs; type: cell-based; conditions: 5 μM, reversible
Experimental: Cell culture and differentiation: Human PSC-derived neural progenitor cells (Stem Cell Catalog No. 70901 and 70902) were cultured and expanded on Matrigel coated 6-wells plates, using neuronal progenitor medium containing: Neurobasal media supplemented by non-essential amino-acids, 1%; Glutamax, 1%; B27, 2%, FGF2, 20 ng/ml). hNPC were then plated onto PDL and Matrigel coated 12 mm coverglass at a density of about 50,000 cells/well of a 6 well, in DMEM/F12; 10% KSR; 1% P/S and A83-01 (2 M) from days 0-5. From days 0-9 the medium contained also CHIR99021 (6 μM). From Day 3-9 the medium included R04929097 (2 μM) and SU5402 (3 μM). From day 9 and onwards, the media change (Neurobasal Media contains: NT-3; BDNF; NGF; GDNF) was performed every other day by replacing only 50% of the media after CO2 equilibrating. […]
Electrophysiology: To characterize the neuronal properties with electrophysiology recordings, round small neurons (20-40 μm in diameter) were selected from day 31 and onwards. Cells were monitored for their polarized negative membrane potential and for their ability to evoke consistent spikes train responses to repeated positive current injections as a mark of achieving electrical maturation before testing the effect of the tested compounds on neuronal excitability. Membrane excitability was monitored using current clamp. […]

hERG [8] = target: T1, hERG; experiment: in vitro; conditions: hamster, CHO cells that express human hERG
hERG [9] = target: T1, hERG; experiment: cell-based
human Kv7.2/3 channels = human Kv7.2/3 channels (Homo sapiens (Human), UniProt O43525+O43526); experiment: High content screen (HCS) FLIPR Potassium (thallium flux) assay, CHO/hKv7.2/3 cell line; type: cell-based; conditions: head prints IC50; channel activation in CHO/hKv7.2/3, fluorescent HCS; read-out: Kv7.2/7.3 IC50
Experimental: Cell culture: […] To maintain the stability of human Kv7.2/7.3 expression antibiotic selection was added (Puromycin g/ml). High content screen (HCS) using FLIPR Potassium Assay Kit: FLIPR Potassium Assay Kit ([…] FLIPR Potassium Assay Explorer Kits, Molecular Devices) was used with the CHO/hKv7.2/3 cell line to screen molecules against the hKv7.2/7.3 ion channel target. The assay exploits the permeability of thallium ions (Tl+) through potassium (K^+) channels. In this assay, Tl+ indicator dye is used to produce a bright fluorescent signal upon the binding to Tl+ conducted through the potassium channels. The intensity of the Tl+ signal is proportional to the number of potassium channels in the open state. Therefore, it provides a functional indication of the potassium channel activity. To activate the voltage-gate potassium channels, the cells were stimulated with a mixture of K+ and Tl+ to depolarize the cell membrane. The fluorescence increase in the assay represents the influx of Tl+ into the cell specifically through the potassium channel, providing a functional read-out of hKv7.2/3 activity using a fluorescent plate reader coupled with injectors used to activate the channels. […] Tecan Spark reader plate injectors were primed with Tl+ (1 mM Tl2SO4) or Tl++K+ (1 mM Tl2SO4; 5 mM K2SO4) for channel activation and data correction. […]

hTRPV1 [10] = target: T2, hTRPV1; experiment: High content screen (HCS) Fluo-8 No Wash calcium flux assay, capsaicin activation, CHO cells expressing hTRPV1; type: cell-based; conditions: CHO cells expressing hTRPV1, fluorescent HCS; read-out: TRPV1 IC50
Kv7.3/5, Kv7.4 = conditions: positive control, Kv7.3/5, Kv7.4 assay; read-out: Known IC50; cited from earlier work

| Structure (SMILES) | hERG, percent in parentheses beside the IC50 bound (hERG [3]) | Kinetic Sol. [4] | LogD [5] | HLM Clint [6] [µL/min/mg] | further results |
| --- | --- | --- | --- | --- | --- |
| Cc1cn(-c2ccc(F)c(CC(=O)NCC(C)(C)O)c2)c2c(Cl)cc(Cl)cc12 [Compound 421-6] | (0%) |  |  |  | capsaicin induced tetanic action potential burst [1]: alleviates; inhibition of current induced AP activity ([2]; 100 nM): 10.1±3.4%; inhibition of current induced AP responses ([2]; 500 nM): 51.2±8.4%; inhibition of the capsaicin induced AP response ([2]; 500 nM): 86.5±8.4%; inhibition of AP response to Capsaicin activation ([2]; 2 μM): 97.9±2.1%; inhibition of AP response to current activation ([2]; 2 μM): 77.7±5.6% |
| CC(C)c1cc(Cl)cc(Cl)c1C(=O)c1ccc(F)c(CC(=O)NCC(C)(C)O)c1 [Compound 417-4] | (0%) | 66 | 4.08 | 91.84 |  |
| CC(C)(C)c1ccc(/C=C/C(=O)Nc2ccc3c(c2)OCCO3)cc1 [AMG9810, reference compound] |  |  |  |  | TRPV1-inhibition potency gain in cells co-expressing hKv7.2/3 and hTRPV1 (hTRPV1 [7]): failure to gain TRPV1-inhibition potency; reduction of Capsaicin evoked firing ([2]; 50 nM): about 50% |
| O=C(Cc1cncc(-n2cc(Cl)c3cc(Cl)cc(Cl)c32)c1)N[C@@H]1COC[C@H]1O [Compound 661] | (0%) | 40 | 3.55 | 72 |  |
| CC(C)c1cc(Cl)cc(Cl)c1C(O)c1ccc(F)c(CC(=O)NCC(C)(C)O)c1 (stereo not drawn) [Compound 417] | (0%) |  |  | 89.1 |  |
| O=C(Cc1cncc(-n2cc(Cl)c3cc(Cl)cc(Cl)c32)c1)NCCO [Compound 649] |  | 10 | 4.19 | 27.3 |  |
| CC(C)c1cc(Cl)cc(Cl)c1C(=O)c1ccc(F)c(CC(=O)NCC2(O)CCC2)c1 [Compound 569] |  | 27 | 4.47 | 120 |  |
| COC[C@@H](CO)NC(=O)Cc1cc(Sc2c(Cl)cc(F)cc2C(C)C)ccc1F [Compound 415] | (0%) | 26.7 | 4.25 | 839 | spontaneous neuronal activity (human sensory neurons): significantly reduced |
| CC(C)c1cc(Cl)cc(Cl)c1C(=O)c1ccc(F)c(CC(=O)NCC2(O)CC2)c1 [Compound 573] |  | 24 | 4.34 | 441 |  |
| COC[C@@H](CO)NC(=O)Cc1cc(Sc2c(Cl)cc(Cl)cc2C(C)C)ccc1F [Compound 414] | (0%) |  |  | 686 |  |
| CC(C)c1cc(Cl)cc(Cl)c1C(O)c1ccc(F)c(CC(=O)NCC2(O)CCC2)c1 (racemic) [Compound 533] |  |  |  |  | solubility kinetic at 10 min ([4]; HHBS buffer with 0.2% DMSO, aqueous with cosolvent or surfactant or cyclodextrin, kinetic from dmso stock, read-out: Kinetic Sol.): 41 µM (≈ 18.6 µg/mL); capsaicin-evoked rat DRGs spiking ([2]; 100 nM): inhibition is gained; current-evoked rat DRGs spiking ([2]; 100 nM): inhibition decreases; inhibition at 1.5 h, 50 µM (hERG [8]): 0%; LogD ([5]; lipid phase / aqueous phase, read-out: LogD): 4.36; microsomal CLint [6]: 658 µL/min/mg; IC50 (hERG [9]): > 50 µM; IC50 (human Kv7.2/3 channels): 1.5 µM; IC50 (hTRPV1 [10]): 21.2 µM |
| CCOC(=O)Nc1ccc(NCc2ccc(F)cc2)cc1N [Retigabine, N-(2-amino-4-(4-fluorobenzylamino)-phenyl)carbamic acid ethyl ester] |  |  |  |  | IC50 (Kv7.3/5, Kv7.4): 1.5 to 5 µM |
| O=C(Cc1cncc(-n2cc(Cl)c3cc(Cl)cc(Cl)c32)c1)N[C@H]1COC[C@@H]1O [Compound 663] |  | 26 | 3.52 | 53.6 |  |
